Activity calls are given as the source filed them. The calls are words filed in the database; no cut-off is given here. Numbered stars: 1 amine (or outer) side, 2 acyl side, 3 side chain; on linkers, the order of the positions; unused ones are H or OH. Square brackets hold non-standard residues; d marks the D form. Peptide text beside a SMILES is read from it. X1 = CCCCC[C@H](O[*:1])C(=O)[*:2]; NMeAhp(2) = CCCCC[C@H](NC)C(=O)O; Ahp(2) = CCCCC[C@H](N)C(=O)O; dNMeA = CN[C@H](C)C(=O)O
Biological target: Ryanodine receptor 2 (Mus musculus) (UniProt E9Q401)
Sequence (E9Q401 whole entry): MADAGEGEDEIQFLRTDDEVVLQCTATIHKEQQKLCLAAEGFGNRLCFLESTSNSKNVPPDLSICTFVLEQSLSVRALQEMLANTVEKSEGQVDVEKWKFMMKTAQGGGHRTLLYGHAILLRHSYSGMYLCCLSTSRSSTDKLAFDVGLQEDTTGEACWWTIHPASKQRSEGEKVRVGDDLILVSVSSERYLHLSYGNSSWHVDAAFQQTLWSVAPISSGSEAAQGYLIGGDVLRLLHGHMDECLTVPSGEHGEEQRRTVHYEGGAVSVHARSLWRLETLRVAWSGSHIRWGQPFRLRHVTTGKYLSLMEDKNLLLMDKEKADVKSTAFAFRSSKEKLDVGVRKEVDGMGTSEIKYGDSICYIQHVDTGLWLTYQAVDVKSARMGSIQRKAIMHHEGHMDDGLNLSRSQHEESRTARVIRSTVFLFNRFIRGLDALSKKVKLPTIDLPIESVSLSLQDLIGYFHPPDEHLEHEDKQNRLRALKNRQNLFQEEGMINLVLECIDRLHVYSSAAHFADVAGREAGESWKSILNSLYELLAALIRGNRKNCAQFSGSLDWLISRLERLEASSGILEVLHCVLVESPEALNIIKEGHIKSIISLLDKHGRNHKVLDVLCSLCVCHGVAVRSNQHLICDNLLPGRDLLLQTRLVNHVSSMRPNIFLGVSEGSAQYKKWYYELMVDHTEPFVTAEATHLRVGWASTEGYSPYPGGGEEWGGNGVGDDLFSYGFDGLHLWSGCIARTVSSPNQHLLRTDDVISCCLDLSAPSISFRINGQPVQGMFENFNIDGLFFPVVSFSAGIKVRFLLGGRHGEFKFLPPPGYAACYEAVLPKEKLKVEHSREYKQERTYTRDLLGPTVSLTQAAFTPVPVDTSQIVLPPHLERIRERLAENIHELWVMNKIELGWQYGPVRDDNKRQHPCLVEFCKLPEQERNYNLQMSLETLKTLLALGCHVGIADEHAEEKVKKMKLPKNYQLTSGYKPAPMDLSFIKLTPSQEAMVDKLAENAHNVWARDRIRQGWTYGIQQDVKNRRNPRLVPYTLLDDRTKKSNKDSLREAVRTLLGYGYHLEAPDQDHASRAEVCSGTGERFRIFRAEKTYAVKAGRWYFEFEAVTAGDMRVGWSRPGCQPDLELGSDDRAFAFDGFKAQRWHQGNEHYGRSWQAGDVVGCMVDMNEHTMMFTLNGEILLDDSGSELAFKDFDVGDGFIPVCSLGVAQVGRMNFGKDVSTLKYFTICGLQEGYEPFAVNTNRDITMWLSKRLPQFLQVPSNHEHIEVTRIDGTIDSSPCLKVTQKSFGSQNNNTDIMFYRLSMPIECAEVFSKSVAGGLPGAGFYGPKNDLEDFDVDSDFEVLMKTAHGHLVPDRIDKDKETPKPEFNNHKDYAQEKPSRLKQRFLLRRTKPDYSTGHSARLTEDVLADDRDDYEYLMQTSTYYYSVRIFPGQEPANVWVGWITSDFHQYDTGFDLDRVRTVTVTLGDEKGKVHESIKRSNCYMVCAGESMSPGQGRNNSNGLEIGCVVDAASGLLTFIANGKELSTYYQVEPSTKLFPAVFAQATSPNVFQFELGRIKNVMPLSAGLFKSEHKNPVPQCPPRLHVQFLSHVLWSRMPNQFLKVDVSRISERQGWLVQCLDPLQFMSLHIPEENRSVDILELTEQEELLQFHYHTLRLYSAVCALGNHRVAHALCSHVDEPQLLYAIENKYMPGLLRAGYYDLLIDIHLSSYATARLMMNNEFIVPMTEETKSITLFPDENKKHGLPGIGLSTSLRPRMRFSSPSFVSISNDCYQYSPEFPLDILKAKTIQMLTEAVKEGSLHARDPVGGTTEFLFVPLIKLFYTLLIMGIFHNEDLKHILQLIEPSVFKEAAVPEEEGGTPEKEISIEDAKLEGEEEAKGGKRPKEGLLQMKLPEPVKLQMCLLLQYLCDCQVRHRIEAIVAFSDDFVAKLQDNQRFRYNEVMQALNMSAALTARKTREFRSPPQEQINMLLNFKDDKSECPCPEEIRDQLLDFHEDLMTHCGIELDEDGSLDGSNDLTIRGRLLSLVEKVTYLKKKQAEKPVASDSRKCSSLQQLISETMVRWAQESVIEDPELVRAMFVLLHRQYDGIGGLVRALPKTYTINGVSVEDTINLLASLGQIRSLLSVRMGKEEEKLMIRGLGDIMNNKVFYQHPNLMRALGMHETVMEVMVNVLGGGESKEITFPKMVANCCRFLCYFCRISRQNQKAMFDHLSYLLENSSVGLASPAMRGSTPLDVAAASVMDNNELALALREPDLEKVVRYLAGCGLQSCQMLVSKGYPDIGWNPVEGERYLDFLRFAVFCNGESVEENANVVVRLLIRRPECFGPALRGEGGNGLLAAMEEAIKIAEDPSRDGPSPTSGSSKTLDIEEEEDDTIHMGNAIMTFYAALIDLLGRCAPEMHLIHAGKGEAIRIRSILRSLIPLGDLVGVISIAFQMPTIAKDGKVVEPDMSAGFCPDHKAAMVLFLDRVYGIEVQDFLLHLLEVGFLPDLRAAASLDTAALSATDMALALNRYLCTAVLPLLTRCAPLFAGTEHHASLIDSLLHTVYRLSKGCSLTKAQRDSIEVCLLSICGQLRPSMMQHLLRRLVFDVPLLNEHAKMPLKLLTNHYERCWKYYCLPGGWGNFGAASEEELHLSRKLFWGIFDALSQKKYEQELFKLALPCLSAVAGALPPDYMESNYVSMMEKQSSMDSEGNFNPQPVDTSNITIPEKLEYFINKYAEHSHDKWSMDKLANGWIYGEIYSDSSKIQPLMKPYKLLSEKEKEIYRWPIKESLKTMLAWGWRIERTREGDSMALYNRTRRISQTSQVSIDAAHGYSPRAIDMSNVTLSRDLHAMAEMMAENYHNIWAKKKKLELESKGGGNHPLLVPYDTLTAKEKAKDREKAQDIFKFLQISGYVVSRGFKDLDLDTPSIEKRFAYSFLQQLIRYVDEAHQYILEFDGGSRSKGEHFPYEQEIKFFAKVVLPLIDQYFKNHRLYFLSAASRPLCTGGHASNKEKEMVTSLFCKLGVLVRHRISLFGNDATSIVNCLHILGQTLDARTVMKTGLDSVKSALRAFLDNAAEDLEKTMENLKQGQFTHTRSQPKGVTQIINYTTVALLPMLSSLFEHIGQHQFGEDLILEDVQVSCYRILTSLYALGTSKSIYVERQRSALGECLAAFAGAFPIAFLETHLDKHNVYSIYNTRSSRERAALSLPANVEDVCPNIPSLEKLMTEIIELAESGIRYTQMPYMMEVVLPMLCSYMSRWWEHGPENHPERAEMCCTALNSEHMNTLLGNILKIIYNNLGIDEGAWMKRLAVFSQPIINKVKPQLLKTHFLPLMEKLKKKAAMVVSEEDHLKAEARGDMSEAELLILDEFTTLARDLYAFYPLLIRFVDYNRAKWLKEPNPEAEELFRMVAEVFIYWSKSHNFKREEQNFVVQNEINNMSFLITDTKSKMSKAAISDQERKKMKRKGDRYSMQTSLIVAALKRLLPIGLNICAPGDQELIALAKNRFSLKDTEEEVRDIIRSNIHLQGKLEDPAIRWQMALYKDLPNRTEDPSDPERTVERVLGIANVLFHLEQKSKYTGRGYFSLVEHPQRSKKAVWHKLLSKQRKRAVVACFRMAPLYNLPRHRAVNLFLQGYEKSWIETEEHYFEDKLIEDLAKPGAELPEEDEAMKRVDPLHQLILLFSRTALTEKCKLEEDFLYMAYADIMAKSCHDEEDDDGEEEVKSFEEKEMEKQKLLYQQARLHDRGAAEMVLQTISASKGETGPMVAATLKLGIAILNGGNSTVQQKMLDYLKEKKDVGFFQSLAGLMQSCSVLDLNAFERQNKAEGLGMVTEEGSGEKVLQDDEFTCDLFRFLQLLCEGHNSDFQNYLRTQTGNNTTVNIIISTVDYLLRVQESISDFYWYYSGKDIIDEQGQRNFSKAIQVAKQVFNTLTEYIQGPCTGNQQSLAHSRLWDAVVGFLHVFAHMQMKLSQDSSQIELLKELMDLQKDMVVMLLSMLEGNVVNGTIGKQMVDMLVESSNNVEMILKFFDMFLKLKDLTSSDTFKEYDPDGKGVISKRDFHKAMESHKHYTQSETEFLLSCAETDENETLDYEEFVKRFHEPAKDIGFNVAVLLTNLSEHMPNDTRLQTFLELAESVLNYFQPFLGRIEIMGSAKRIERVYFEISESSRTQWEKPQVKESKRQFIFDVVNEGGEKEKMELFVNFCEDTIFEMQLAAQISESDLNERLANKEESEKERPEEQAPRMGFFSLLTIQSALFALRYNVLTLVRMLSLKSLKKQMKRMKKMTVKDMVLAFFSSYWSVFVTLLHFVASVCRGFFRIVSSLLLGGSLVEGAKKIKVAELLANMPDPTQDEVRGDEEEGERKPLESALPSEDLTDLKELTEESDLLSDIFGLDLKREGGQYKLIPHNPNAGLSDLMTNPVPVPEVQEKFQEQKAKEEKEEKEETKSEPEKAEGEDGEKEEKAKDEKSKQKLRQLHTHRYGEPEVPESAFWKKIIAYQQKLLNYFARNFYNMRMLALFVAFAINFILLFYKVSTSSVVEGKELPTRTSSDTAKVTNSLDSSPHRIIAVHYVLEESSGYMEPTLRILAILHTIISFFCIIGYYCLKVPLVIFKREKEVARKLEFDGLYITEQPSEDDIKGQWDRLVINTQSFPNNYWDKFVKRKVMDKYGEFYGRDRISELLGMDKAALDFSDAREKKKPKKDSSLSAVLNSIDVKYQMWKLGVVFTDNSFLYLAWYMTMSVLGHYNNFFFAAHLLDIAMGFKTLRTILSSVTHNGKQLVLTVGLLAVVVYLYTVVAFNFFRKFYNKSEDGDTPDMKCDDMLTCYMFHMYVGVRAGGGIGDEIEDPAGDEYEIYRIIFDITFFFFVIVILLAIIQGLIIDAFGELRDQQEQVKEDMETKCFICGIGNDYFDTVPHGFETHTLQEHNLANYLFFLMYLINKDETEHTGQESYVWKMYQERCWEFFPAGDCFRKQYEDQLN
Assay: Inhibition of RyR2-mediated calcium spark frequency in saponin-permeabilized left ventricular myocytes of C57BL/6J mouse at 25 uM incubated for 15 min by Fluo-4 dye based analysis
Format: cell-based
Settings: Ventricular myocyte

SMILES | inhibition
CCCCC[C@@H]1NC(=O)[C@@H](C)N(C)C(=O)[C@H](CCCCC)NC(=O)[C@@H](C)N(C)C(=O)[C@H](CCCCC)N(C)C(=O)[C@@H](C)N(C)C(=O)[C@H](CCCCC)NC(=O)[C@@H](C)N(C)C1=O (cyclo([Ahp(2)][dNMeA][Ahp(2)][dNMeA][Ahp(2)][dNMeA][NMeAhp(2)][dNMeA])) | inactive
CCCCC[C@@H]1OC(=O)[C@@H](C)N(C)C(=O)[C@H](CCCCC)OC(=O)[C@@H](C)N(C)C(=O)[C@H](CCCCC)OC(=O)[C@@H](C)N(C)C(=O)[C@H](CCCCC)OC(=O)[C@@H](C)N(C)C1=O | inactive
CCCCC[C@@H]1NC(=O)[C@@H](C)N(C)C(=O)[C@H](CCCCC)OC(=O)[C@@H](C)N(C)C(=O)[C@H](CCCCC)NC(=O)[C@@H](C)N(C)C(=O)[C@H](CCCCC)OC(=O)[C@@H](C)N(C)C1=O (cyclo([Ahp(2)][dNMeA][X1][dNMeA][Ahp(2)][dNMeA][X1][dNMeA])) | inactive
CCCCC[C@@H]1OC(=O)[C@@H](C)N(C)C(=O)[C@H](CCCCC)OC(=O)[C@@H](C)N(C)C(=O)[C@H](CCCCC)OC(=O)[C@@H](C)N(C)C(=O)[C@H](CCCCC)OC(=O)[C@@H](C)NC1=O | inactive
CCCCC[C@@H]1OC(=O)[C@@H](C)N(C)C(=O)[C@H](CCCCC)N(C)C(=O)[C@@H](C)N(C)C(=O)[C@H](CCCCC)OC(=O)[C@@H](C)N(C)C(=O)[C@H](CCCCC)N(C)C(=O)[C@@H](C)N(C)C1=O | inactive
CCCCC[C@@H]1OC(=O)[C@@H](C)N(C)C(=O)[C@H](CCCCC)OC(=O)[C@@H](C)NC(=O)[C@H](CCCCC)OC(=O)[C@@H](C)NC(=O)[C@H](CCCCC)OC(=O)[C@@H](C)NC1=O | inactive
CCCCC[C@H]1C(=O)N(C)[C@H](C)C(=O)N(C)[C@@H](CCCCC)C(=O)N(C)[C@H](C)C(=O)N(C)[C@@H](CCCCC)C(=O)N(C)[C@H](C)C(=O)N(C)[C@@H](CCCCC)C(=O)N(C)[C@H](C)C(=O)N1C (cyclo([NMeAhp(2)][dNMeA][NMeAhp(2)][dNMeA][NMeAhp(2)][dNMeA][NMeAhp(2)][dNMeA])) | inactive
CCCCC[C@H]1C(=O)N[C@H](C)C(=O)N(C)[C@@H](CCCCC)C(=O)N[C@H](C)C(=O)N(C)[C@@H](CCCCC)C(=O)N[C@H](C)C(=O)N(C)[C@@H](CCCCC)C(=O)N(C)[C@H](C)C(=O)N1C (cyclo([NMeAhp(2)][dA][NMeAhp(2)][dA][NMeAhp(2)][dA][NMeAhp(2)][dNMeA])) | inactive
CCCCC[C@@H]1OC(=O)[C@@H](C)N(C)C(=O)[C@H](CCCCC)OC(=O)[C@@H](C)N(C)C(=O)[C@H](CCCCC)N(C)C(=O)[C@@H](C)N(C)C(=O)[C@H](CCCCC)OC(=O)[C@@H](C)N(C)C1=O | Active
CCCCC[C@@H]1OC(=O)[C@@H](C)N(C)C(=O)[C@H](CCCCC)OC(=O)[C@@H](C)NC(=O)[C@H](CCCCC)OC(=O)[C@@H](C)N(C)C(=O)[C@H](CCCCC)OC(=O)[C@@H](C)NC1=O | inactive
CCCCC[C@@H]1OC(=O)[C@@H](C)N(C)C(=O)[C@H](CCCCC)OC(=O)[C@@H](C)N(C)C(=O)[C@H](CCCCC)OC(=O)[C@@H](C)NC(=O)[C@H](CCCCC)OC(=O)[C@@H](C)NC1=O | inactive
CCCCC[C@@H]1NC(=O)[C@@H](C)N(C)C(=O)[C@H](CCCCC)NC(=O)[C@@H](C)N(C)C(=O)[C@H](CCCCC)NC(=O)[C@@H](C)N(C)C(=O)[C@H](CCCCC)NC(=O)[C@@H](C)N(C)C1=O (cyclo([Ahp(2)][dNMeA][Ahp(2)][dNMeA][Ahp(2)][dNMeA][Ahp(2)][dNMeA])) | inactive
CCCCC[C@H]1C(=O)N[C@H](C)C(=O)N(C)[C@@H](CCCCC)C(=O)N(C)[C@H](C)C(=O)N(C)[C@@H](CCCCC)C(=O)N[C@H](C)C(=O)N(C)[C@@H](CCCCC)C(=O)N(C)[C@H](C)C(=O)N1C (cyclo([NMeAhp(2)][dA][NMeAhp(2)][dNMeA][NMeAhp(2)][dA][NMeAhp(2)][dNMeA])) | inactive
CCCCC[C@@H]1OC(=O)[C@@H](C)N(C)C(=O)[C@H](CCCCC)N(C)C(=O)[C@@H](C)N(C)C(=O)[C@H](CCCCC)N(C)C(=O)[C@@H](C)N(C)C(=O)[C@H](CCCCC)OC(=O)[C@@H](C)N(C)C1=O | inactive
CCCCC[C@@H]1NC(=O)[C@@H](C)N(C)C(=O)[C@H](CCCCC)OC(=O)[C@@H](C)N(C)C(=O)[C@H](CCCCC)OC(=O)[C@@H](C)N(C)C(=O)[C@H](CCCCC)OC(=O)[C@@H](C)N(C)C1=O (cyclo([Ahp(2)][dNMeA][X1][dNMeA][X1][dNMeA][X1][dNMeA])) | Active
CCCCC[C@H]1C(=O)N[C@H](C)C(=O)N(C)[C@@H](CCCCC)C(=O)N[C@H](C)C(=O)N(C)[C@@H](CCCCC)C(=O)N[C@H](C)C(=O)N(C)[C@@H](CCCCC)C(=O)N[C@H](C)C(=O)N1C (cyclo([NMeAhp(2)][dA][NMeAhp(2)][dA][NMeAhp(2)][dA][NMeAhp(2)][dA])) | inactive
CCCCC[C@H]1C(=O)N[C@H](C)C(=O)N(C)[C@@H](CCCCC)C(=O)N(C)[C@H](C)C(=O)N(C)[C@@H](CCCCC)C(=O)N(C)[C@H](C)C(=O)N(C)[C@@H](CCCCC)C(=O)N(C)[C@H](C)C(=O)N1C (cyclo([NMeAhp(2)][dA][NMeAhp(2)][dNMeA][NMeAhp(2)][dNMeA][NMeAhp(2)][dNMeA])) | inactive
CCCCC[C@@H]1OC(=O)[C@@H](C)N(C)C(=O)[C@H](CCCCC)N(C)C(=O)[C@@H](C)N(C)C(=O)[C@H](CCCCC)N(C)C(=O)[C@@H](C)N(C)C(=O)[C@H](CCCCC)N(C)C(=O)[C@@H](C)N(C)C1=O | inactive
CCCCC[C@@H]1NC(=O)[C@@H](C)N(C)C(=O)[C@H](CCCCC)NC(=O)[C@@H](C)N(C)C(=O)[C@H](CCCCC)OC(=O)[C@@H](C)N(C)C(=O)[C@H](CCCCC)NC(=O)[C@@H](C)N(C)C1=O (cyclo([Ahp(2)][dNMeA][Ahp(2)][dNMeA][Ahp(2)][dNMeA][X1][dNMeA])) | inactive
CCCCC[C@@H]1NC(=O)[C@@H](C)N(C)C(=O)[C@H](CCCCC)OC(=O)[C@@H](C)N(C)C(=O)[C@H](CCCCC)OC(=O)[C@@H](C)N(C)C(=O)[C@H](CCCCC)NC(=O)[C@@H](C)N(C)C1=O (cyclo([Ahp(2)][dNMeA][Ahp(2)][dNMeA][X1][dNMeA][X1][dNMeA])) | inactive
CCCCC[C@H]1C(=O)N[C@H](C)C(=O)N(C)[C@@H](CCCCC)C(=O)N[C@H](C)C(=O)N(C)[C@@H](CCCCC)C(=O)N(C)[C@H](C)C(=O)N(C)[C@@H](CCCCC)C(=O)N(C)[C@H](C)C(=O)N1C (cyclo([NMeAhp(2)][dA][NMeAhp(2)][dA][NMeAhp(2)][dNMeA][NMeAhp(2)][dNMeA])) | inactive
CCCCC[C@@H]1NC(=O)[C@@H](C)N(C)C(=O)[C@H](CCCCC)N(C)C(=O)[C@@H](C)N(C)C(=O)[C@H](CCCCC)NC(=O)[C@@H](C)N(C)C(=O)[C@H](CCCCC)N(C)C(=O)[C@@H](C)N(C)C1=O (cyclo([Ahp(2)][dNMeA][NMeAhp(2)][dNMeA][Ahp(2)][dNMeA][NMeAhp(2)][dNMeA])) | inactive
CCCCC[C@@H]1NC(=O)[C@@H](C)N(C)C(=O)[C@H](CCCCC)N(C)C(=O)[C@@H](C)N(C)C(=O)[C@H](CCCCC)N(C)C(=O)[C@@H](C)N(C)C(=O)[C@H](CCCCC)N(C)C(=O)[C@@H](C)N(C)C1=O (cyclo([Ahp(2)][dNMeA][NMeAhp(2)][dNMeA][NMeAhp(2)][dNMeA][NMeAhp(2)][dNMeA])) | inactive
CCCCC[C@@H]1NC(=O)[C@@H](C)N(C)C(=O)[C@H](CCCCC)N(C)C(=O)[C@@H](C)N(C)C(=O)[C@H](CCCCC)N(C)C(=O)[C@@H](C)N(C)C(=O)[C@H](CCCCC)NC(=O)[C@@H](C)N(C)C1=O (cyclo([Ahp(2)][dNMeA][Ahp(2)][dNMeA][NMeAhp(2)][dNMeA][NMeAhp(2)][dNMeA])) | inactive
CCCCC[C@@H]1OC(=O)[C@@H](C)NC(=O)[C@H](CCCCC)OC(=O)[C@@H](C)NC(=O)[C@H](CCCCC)OC(=O)[C@@H](C)NC(=O)[C@H](CCCCC)OC(=O)[C@@H](C)NC1=O | inactive

Tested on: not listed separately
Assay: Passive permeability of compound by PAMPA
Format: ADME
Settings: not given

SMILES | permeability
CCCCC[C@@H]1OC(=O)[C@@H](C)N(C)C(=O)[C@H](CCCCC)OC(=O)[C@@H](C)N(C)C(=O)[C@H](CCCCC)N(C)C(=O)[C@@H](C)N(C)C(=O)[C@H](CCCCC)OC(=O)[C@@H](C)N(C)C1=O | Permeable
CCCCC[C@@H]1NC(=O)[C@@H](C)N(C)C(=O)[C@H](CCCCC)OC(=O)[C@@H](C)N(C)C(=O)[C@H](CCCCC)OC(=O)[C@@H](C)N(C)C(=O)[C@H](CCCCC)OC(=O)[C@@H](C)N(C)C1=O (cyclo([Ahp(2)][dNMeA][X1][dNMeA][X1][dNMeA][X1][dNMeA])) | Permeable
